The text below walks through data of ChEMBL document CHEMBL1140248, “3-(1,2,3-Triazol-1-yl)-1-thio-galactosides as small, efficient, and hydrolytically stable inhibitors of galectin-3” (Bioorg Med Chem Lett, 2005).

What is called Kd is the free concentration of one partner at which half of the binding sites on the other are occupied at equilibrium, for simple one-to-one binding.

One test deals with Galectin-3 (Mus musculus, UniProt P16110). Description: Dissociation constant for mouse Galectin-3.
Test [1] concerns the target Galectin-3 (Mus musculus) (UniProt P16110). The test can be described thus: Relative affinity for mouse Galectin-3 compared to D-galactose-methyl-beta-glycoside. In kind it is functional.

Sequence of Galectin-3 (Mus musculus) (P16110 whole entry): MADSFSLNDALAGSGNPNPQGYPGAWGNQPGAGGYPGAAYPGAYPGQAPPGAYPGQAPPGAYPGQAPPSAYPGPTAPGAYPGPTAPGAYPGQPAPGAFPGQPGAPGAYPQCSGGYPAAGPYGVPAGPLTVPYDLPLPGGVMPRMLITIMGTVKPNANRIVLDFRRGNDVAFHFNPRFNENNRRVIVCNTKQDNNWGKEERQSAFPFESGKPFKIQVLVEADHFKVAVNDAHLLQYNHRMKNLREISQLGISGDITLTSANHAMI
Sequence of Galectin-3 (P16110 whole entry): as above

`CSC1OC(CO)C(O)C(n2cc(C3(O)CCCCC3)nn2)C1O` (stereo not drawn) yielded a Kd at Galectin-3 of 1750 µM. Besides, the Affinity in test [1] was determined as 2.5.
In the same order, the values of `CSC1OC(CO)C(O)C(n2ccnn2)C1O` (stereo not drawn) are above 20000 µM and below 0.2.
As to `CSC1OC(CO)C(O)C(n2cc(C(=O)NCc3ccccc3)nn2)C1O` (stereo not drawn), the Affinity in test [1] was determined as 42.
On Galectin-3, `CSC1OC(CO)C(O)C(NC(=O)c2ccc3ccccc3c2)C1O` (stereo not drawn) came in with a Kd of 272 µM. Further, in test [1], the Affinity is 16.
Taken in the same sequence, the figures for `CCCc1cn(C2C(O)C(CO)OC(SC)C2O)nn1` (stereo not drawn) were 4600 µM and 1.
Taken in the same sequence, the figures for `CCCCNC(=O)c1cn(C2C(O)C(CO)OC(SC)C2O)nn1` (stereo not drawn) were 124 µM and 36.
For the compound `CSC1OC(CO)C(O)C(n2cc(C(=O)NCCN3CCOCC3)nn2)C1O` (stereo not drawn), the Kd on Galectin-3 came out at 571 µM. Moreover, in test [1], the Affinity is 7.5.
Compound `CS[C@H]1O[C@@H](COC2O[C@@H](O)[C@H](O)[C@@H](O)[C@H]2O)[C@H](O)[C@@H](NC(=O)c2ccc3ccccc3c2)[C@@H]1O` (stereo partly drawn) showed a Kd at Galectin-3 of 4400 µM. The compound also displayed an Affinity in test [1] of 1.
Taken in the same sequence, the figures for `CSC1OC(CO)C(O)C(n2cc(-c3ccccc3)nn2)C1O` (stereo not drawn) were 147 µM and 29.
In turn, `CSC1OC(CO)C(O)C(NC(=O)c2ccccc2)C1O` (stereo not drawn) displayed a Kd at Galectin-3 of 2690 µM. The compound further registered an Affinity in test [1] of 1.7.
At Galectin-3, `COC(=O)c1cn(C2C(O)C(CO)OC(SC)C2O)nn1` (stereo not drawn) yielded a Kd of 1410 µM. In addition, the Affinity in test [1] was found to be 3.2.
`CS[C@H]1O[C@@H](COC2O[C@@H](OC([C@H](O)CO)[C@H](O)[C@@H](NC(C)=O)C(C)=O)[C@H](O)[C@@H](O)[C@H]2O)[C@H](O)[C@@H](NC(=O)c2ccc3ccccc3c2)[C@@H]1O` (stereo partly drawn) displayed a Kd at Galectin-3 of 67 µM. The Affinity in test [1] was determined as 64.
Regarding `CNC(=O)c1cn(C2C(O)C(CO)OC(SC)C2O)nn1` (stereo not drawn), the equilibrium dissociation constant (Kd) at Galectin-3 turned out to be 230 µM. The Affinity in test [1] is 19.
LACTOSE, ANHYDROUS showed an Affinity in test [1] of 20.
As to `CSC1OC(CO)C(O)C(n2cc(C(=O)NCCCO)nn2)C1O` (stereo not drawn), the affinity at Galectin-3, expressed as Kd, was 386 µM. The compound further showed an Affinity in test [1] of 12.
